Where no end group is shown, it is not given here.
How the values were obtained:
[1] = system: BMRPA1 normal rat pancreatic acinar cells; assay: Growth and viability of untransformed BMRPA1 cells incubated with peptide; format: cell-based
Procedure: (§1) MIAPaCa-2 cells were grown in Dulbecco's modified Eagle's medium (GIBCO) supplemented with heat inactivated 10% fetal calf serum, 20 mM glutamine, penicillin (100 units/ml), streptomycin (100/ug/ml) and plated on a six-well plate with density no more then 20,000 cells/well in 3 ml culture medium. HT1080 cells were cultured in RPMI 1640 medium supplemented with 10% heat-inactivated fetal calf serum, 100 units/ml of penicillin and 100 ug/ml streptomycin and plated on six-well plates with a density of no more then 6,000 cells/well in 3 ml culture medium. BMRPA1 normal rat pancreatic acinar cells were grown as described previously.
(§2) All cells (approximately 2×10^4) were incubated in their respective media (see above) for 24 h after which the media were replaced with the same media containing one of the peptides at a concentration of 100 μg/ml. Over the subsequent time course of each experiment, the medium was changed every 48 h, but always contained peptide at the same concentration. Cells were observed daily for 1-3 weeks for changes in morphology and growth characteristics. After selected time periods, cells were stained with trypan blue or assayed using the MTT assay as described previously to assess cell counts. These experiments were performed at least three times for each cell line.

[2] = system: HT-1080 fibrosarcoma cells; assay: Growth (cell counts) of HT-1080 cells incubated with peptide; format: cell-based, human; details: peptide 100 μg/ml, medium changed every 48 h; three-week observation period (FIG. 1)
Procedure: as §1, §2

[3] = system: oncogenic (Val 12-containing) ras-p21-induced oocyte maturation; assay: Oncogenic ras-p21-induced oocyte maturation (GVBD); format: cell-based, Xenopus laevis; details: injected/co-injected with oncogenic ras-p21 into oocytes
From the text: (§3) The Applicants have synthesized both of the inventive peptides, referred to as PNC-7 and PNC-2, and assayed them for their abilities to block oncogenic ras-p21 induction of maturation of Xenopus laevis oocytes. Injection of oncogenic, but not wild-type ras-p21, into these oocytes induce oocyte maturation, i.e., completion of the second meiotic division, as measured by germinal vesicle membrane breakdown (GVBD). Insulin also induces oocyte maturation in a manner that requires activation of endogenous wild-type ras-p21.

[4] = biological target: oncogenic ras-p21 with raf (Homo sapiens, UniProt P04049); assay: Interaction of oncogenic ras-p21 with raf; format: binding
[5] = system: insulin-induced oocyte maturation; assay: Insulin-induced oocyte maturation (activated wild-type ras-p21); format: cell-based, Xenopus laevis; details: oocytes induced to mature with insulin
From the text: as §3

[6] = system: caspase (CPP32) in MIA-PaCa-2 cells; assay: Clontech caspase (CPP32) activity assay for apoptosis; format: cell-based, human; details: relative to control background; TNF-alpha 20 ng/ml for 45 min as positive control (FIG. 4A)
Procedure: To detect if peptide-induced cell death occurred by apoptosis or necrosis, the Clontech caspase (CPP32) activity assay for elevated caspase was performed as described previously. In addition, to detect if significant cell necrosis occurred, the CytoTox96 assay for LDH released into the cell culture medium was used as also described previously. As a positive control for LDH release, the CytoTox96 assay was performed on the media of MIA-PaCa-2 cells that were incubated with 100 ug/ml PNC-28 peptide for 24 h.

[7] = system: oncogenic ras-p21-JNK interaction; assay: Oncogenic ras-p21-JNK interaction; format: binding; details: dose-response curve coincides with that for inhibition of oocyte maturation

MPFSTGKRIMLGEKKWKMRRNQFVKVQRG [PNC-29, reference compound]
cell growth or viability of untransformed BMRPA1 cells [1]: no effect either on cell growth or viability

NAVFRLLHEHKGKKAKKWKMRRNQFVKVQRG (CD45-MRP- Control peptide from the CD-45 antigen linked to penetratin) [CD-45-MRP]
tumor cell growth / cell count of HT-1080 cells [2]: no effect on tumor cell growth

TIEDSYRQVVID (PNC-7- ras-p21 residue 35-47)
inhibition of oncogenic ras-p21-induced oocyte maturation [3]: block | blocking of the interaction of oncogenic ras-p21 with raf [4]: blocks the interaction of oncogenic ras-p21 with raf | inhibition of insulin-induced oocyte maturation [5]: considerably less inhibitory activity

TIEDSYRQVVIDKKWKMRRNQFVKVQRG [PNC-7-MRP]
cell growth or viability of untransformed BMRPA1 cells [1]: no effect either on cell growth or viability

TNF-alpha
caspase expression in MIA-PaCa-2 cells [6]: markedly elevated

YREQIKRVKDSDDVP (PNC-2 -ras-p21 residue 96-110)
inhibition of oncogenic ras-p21-induced oocyte maturation [3]: block | blocking of the oncogenic ras-p21-JNK interaction [7]: blocks the oncogenic ras-p21-JNK interaction | inhibition of insulin-induced oocyte maturation [5]: considerably less inhibitory activity

YREQIKRVKDSDDVPKKWKMRRNQFVKVQRG [PNC-2-MRP]
cell growth or viability of untransformed BMRPA1 cells [1]: no effect either on cell growth or viability

— patent publication US20100144636A1, “PEPTIDES DERIVED FROM RAS-P21 AND USES THEREFOR” (THE RESEARCH FOUNDATION OF STATE UNIVERSITY OF NEW YORK, priority 2008, published 2010)
